One experiment has as its target T1, intracellular ATR (Homo sapiens, UniProt Q13535).
T1 construct: endogenous in cells; host or cells: HT29
As to the kind of experiment: Cellular ATR Inhibition Assay (H2AX phosphorylation, immunofluorescence microscopy). It counts as cell-based. The conditions noted are these: HT29 cells, 2 mM hydroxyurea, percentage of phosphorylated H2AX Ser139-positive nuclei. Here is the method:
Compounds were screened for their ability to inhibit intracellular ATR using an immunofluorescence microscopy assay to detect phosphorylation of the ATR substrate histone H2AX in hydroxyurea treated cells. HT29 cells were plated at 14,000 cells per well in 96-well black imaging plates (BD 353219) in McCoy's 5A media (Sigma M8403) supplemented with 10% foetal bovine serum (JRH Biosciences 12003), Penicillin/Streptomycin solution diluted 1:100 (Sigma P7539), and 2 mM L-glumtamine (Sigma G7513), and allowed to adhere overnight at 37° C. in 5% CO2. Compounds were then added to the cell media from a final concentration of 25 μM in 3-fold serial dilutions and the cells were incubated at 37° C. in 5% CO2. After 15 min, hydroxyurea (Sigma H8627) was added to a final concentration of 2 mM.
After 45 min of treatment with hydroxyurea, the cells were washed in PBS, fixed for 10 min in 4% formaldehyde diluted in PBS (Polysciences Inc 18814), washed in 0.2% Tween-20 in PBS (wash buffer), and permeabilised for 10 min in 0.5% Triton X-100 in PBS, all at room temperature. The cells were then washed once in wash buffer and blocked for 30 min at room temperature in 10% goat serum (Sigma G9023) diluted in wash buffer (block buffer). To detect H2AX phosphorylation levels, the cells were then incubated for 1 h at room temperature in primary antibody (mouse monoclonal anti-phosphorylated histone H2AX Ser139 antibody; Upstate 05-636) diluted 1:250 in block buffer. The cells were then washed five times in wash buffer before incubation for 1 h at room temperature in the dark in a mixture of secondary antibody (goat anti-mouse Alexa Fluor 488 conjugated antibody; Invitrogen A11029) and Hoechst stain (Invitrogen H3570); diluted 1:500 and 1:5000, respectively, in wash buffer. The cells were then washed five times in wash buffer and finally 100 ul PBS was added to each well before imaging.
Cells were imaged for Alexa Fluor 488 and Hoechst intensity using the BD Pathway 855 Bioimager and Attovision software (BD Biosciences, Version 1.6/855) to quantify phosphorylated H2AX Ser139 and DNA staining, respectively. The percentage of phosphorylated H2AX-positive nuclei in a montage of 9 images at 20× magnification was then calculated for each well using BD Image Data Explorer software (BD Biosciences Version 2.2.15). Phosphorylated H2AX-positive nuclei were defined as Hoechst-positive regions of interest containing Alexa Fluor 488 intensity at 1.75-fold the average Alexa Fluor 488 intensity in cells not treated with hydroxyurea. The percentage of H2AX positive nuclei was finally plotted against concentration for each compound and IC50s for intracellular ATR inhibition were determined using Prism software (GraphPad Prism version 3.0cx for Macintosh, GraphPad Software, San Diego Calif., USA).

The target of a further experiment is T2, full-length ATR (Homo sapiens, UniProt Q13535).
T2 construct: in the presence of 5 nM full-length ATR
T2 sequence (Q13535 whole entry): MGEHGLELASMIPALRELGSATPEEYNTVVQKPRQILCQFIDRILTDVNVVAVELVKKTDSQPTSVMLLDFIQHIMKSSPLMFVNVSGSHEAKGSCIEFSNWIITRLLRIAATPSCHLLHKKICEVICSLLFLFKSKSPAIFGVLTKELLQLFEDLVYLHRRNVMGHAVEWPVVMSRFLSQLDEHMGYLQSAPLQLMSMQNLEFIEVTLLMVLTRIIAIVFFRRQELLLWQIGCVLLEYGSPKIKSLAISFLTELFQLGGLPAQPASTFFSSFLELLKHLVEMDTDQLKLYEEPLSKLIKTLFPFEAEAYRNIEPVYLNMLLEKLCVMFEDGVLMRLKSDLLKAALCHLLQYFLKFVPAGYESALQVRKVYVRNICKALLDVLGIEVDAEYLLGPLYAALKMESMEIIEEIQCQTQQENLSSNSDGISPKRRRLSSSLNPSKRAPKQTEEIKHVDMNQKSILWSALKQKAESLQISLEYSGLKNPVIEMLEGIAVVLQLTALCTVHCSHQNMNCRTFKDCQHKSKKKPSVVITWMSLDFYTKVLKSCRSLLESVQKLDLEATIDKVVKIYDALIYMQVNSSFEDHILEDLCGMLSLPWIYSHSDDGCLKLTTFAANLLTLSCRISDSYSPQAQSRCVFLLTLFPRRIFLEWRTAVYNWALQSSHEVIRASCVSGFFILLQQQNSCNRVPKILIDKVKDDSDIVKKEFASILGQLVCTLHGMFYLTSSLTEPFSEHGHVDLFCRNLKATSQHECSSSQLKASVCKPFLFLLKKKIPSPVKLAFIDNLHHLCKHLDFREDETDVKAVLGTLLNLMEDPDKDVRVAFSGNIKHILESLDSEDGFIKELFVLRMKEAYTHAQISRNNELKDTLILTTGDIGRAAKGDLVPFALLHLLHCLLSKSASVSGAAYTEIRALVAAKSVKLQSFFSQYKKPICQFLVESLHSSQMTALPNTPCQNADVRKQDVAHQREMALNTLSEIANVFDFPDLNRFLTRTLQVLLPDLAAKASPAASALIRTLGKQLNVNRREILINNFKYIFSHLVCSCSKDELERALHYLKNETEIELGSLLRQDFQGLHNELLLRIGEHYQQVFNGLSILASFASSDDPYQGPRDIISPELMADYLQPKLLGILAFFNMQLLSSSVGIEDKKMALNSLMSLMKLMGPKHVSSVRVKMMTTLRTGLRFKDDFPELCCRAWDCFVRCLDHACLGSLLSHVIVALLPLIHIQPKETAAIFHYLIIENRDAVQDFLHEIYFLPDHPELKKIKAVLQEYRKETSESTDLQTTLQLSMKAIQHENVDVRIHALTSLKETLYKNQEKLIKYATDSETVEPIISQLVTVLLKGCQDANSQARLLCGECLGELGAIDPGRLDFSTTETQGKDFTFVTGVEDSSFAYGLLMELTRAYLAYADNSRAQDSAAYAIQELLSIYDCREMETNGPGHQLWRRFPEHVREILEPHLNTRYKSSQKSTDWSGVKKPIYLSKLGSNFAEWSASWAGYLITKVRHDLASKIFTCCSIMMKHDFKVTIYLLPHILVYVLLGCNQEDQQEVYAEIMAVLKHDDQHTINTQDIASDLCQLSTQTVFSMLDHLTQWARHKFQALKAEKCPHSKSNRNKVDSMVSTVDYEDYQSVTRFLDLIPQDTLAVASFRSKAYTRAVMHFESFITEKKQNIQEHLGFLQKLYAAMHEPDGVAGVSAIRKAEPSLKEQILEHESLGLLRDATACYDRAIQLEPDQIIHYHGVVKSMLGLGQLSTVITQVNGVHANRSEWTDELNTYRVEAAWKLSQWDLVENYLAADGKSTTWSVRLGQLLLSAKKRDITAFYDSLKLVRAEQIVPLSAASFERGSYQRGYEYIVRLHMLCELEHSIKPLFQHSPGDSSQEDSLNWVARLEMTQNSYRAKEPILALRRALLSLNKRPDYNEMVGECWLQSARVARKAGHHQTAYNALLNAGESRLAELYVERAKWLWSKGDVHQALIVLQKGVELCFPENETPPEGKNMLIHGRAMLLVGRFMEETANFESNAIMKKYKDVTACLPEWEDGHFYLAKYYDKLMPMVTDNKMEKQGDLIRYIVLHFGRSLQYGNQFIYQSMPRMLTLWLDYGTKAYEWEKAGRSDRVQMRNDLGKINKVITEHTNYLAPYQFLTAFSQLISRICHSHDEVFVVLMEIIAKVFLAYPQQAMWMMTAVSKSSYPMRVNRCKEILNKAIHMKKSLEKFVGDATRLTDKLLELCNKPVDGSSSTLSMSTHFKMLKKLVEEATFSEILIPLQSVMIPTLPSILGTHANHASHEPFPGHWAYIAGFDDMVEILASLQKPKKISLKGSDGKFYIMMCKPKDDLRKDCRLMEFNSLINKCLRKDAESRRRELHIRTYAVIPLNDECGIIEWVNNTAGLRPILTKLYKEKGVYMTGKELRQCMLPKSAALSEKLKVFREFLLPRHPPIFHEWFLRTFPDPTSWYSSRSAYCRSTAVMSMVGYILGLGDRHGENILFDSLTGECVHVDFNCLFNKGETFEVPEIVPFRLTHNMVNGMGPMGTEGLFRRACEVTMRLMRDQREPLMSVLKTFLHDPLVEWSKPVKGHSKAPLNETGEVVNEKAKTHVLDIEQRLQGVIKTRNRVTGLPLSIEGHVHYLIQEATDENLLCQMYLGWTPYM
Description: ATR Inhibition Assay (radioactive-phosphate incorporation). It counts as biochemical. The conditions noted are these: Ki(app); 5 nM full-length ATR, 10 μM ATP, 800 μM target peptide, 25° C. The method in brief:
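After a 10-min pre-incubation of compound with 5 nM enzyme at 25 °C, ATP was added to start the reaction (final 10 μM [γ-33P]ATP, 800 μM peptide; Tris/HCl pH 7.5, MgCl2, DTT), which ran 24 h. Incorporated 33P was captured on phosphocellulose filters, and Ki(app) was fitted by non-linear regression.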

Molecules are shown by their SMILES.

T1 sequence (Q13535 whole entry): as above
T1 sequence (Q8WXE1 whole entry partner): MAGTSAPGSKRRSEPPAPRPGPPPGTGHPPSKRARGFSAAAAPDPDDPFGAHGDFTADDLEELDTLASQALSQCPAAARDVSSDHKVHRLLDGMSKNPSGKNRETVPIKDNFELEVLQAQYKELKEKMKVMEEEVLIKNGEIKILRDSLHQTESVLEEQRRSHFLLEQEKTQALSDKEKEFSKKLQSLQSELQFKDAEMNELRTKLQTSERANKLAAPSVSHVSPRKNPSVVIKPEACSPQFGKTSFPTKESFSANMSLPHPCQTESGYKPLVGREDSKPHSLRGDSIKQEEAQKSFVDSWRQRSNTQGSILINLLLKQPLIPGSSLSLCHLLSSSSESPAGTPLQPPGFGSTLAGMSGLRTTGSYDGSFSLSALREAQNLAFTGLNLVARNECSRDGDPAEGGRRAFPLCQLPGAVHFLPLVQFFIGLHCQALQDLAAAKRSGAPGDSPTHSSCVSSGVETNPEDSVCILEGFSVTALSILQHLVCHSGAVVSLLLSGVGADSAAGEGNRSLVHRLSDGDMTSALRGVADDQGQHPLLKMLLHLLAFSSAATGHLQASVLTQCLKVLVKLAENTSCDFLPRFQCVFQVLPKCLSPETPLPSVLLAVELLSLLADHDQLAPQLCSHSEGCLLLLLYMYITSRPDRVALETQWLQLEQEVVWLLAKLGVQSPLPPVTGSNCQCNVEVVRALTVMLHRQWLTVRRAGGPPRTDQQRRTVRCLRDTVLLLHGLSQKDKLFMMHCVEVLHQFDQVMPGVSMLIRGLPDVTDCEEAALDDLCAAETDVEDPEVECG

As to `CCS(=O)(=O)N1CCN(c2cnc(N)c(-c3nc4ccccc4[nH]3)n2)CC1` [Compound I-16, 3-(1H-benzo[d]imidazol-2-yl)-5-(4-(ethylsulfonyl)piperazin-1-yl)pyrazin-2-amine], the IC50 – broadly, the concentration that gives 50% inhibition – on intracellular ATR was 10000 to 30000 nM. Besides, the Ki at full-length ATR was in the range of 100 to 1000 nM.
For `CN(C)S(=O)(=O)N1CC=C(c2cnc(N)c(-c3nc4cccnc4[nH]3)n2)CC1` [Compound I-26, 4-(5-amino-6-(3H-imidazo[4,5-b]pyridin-2-yl)pyrazin-2-yl)-N,N-dimethyl-5,6-dihydropyridine-1(2H)-sulfonamide] the same measures were 1000 to 5000 nM and below 100 nM.
For `Cc1ccc2nc(-c3nc(-n4ccc(=O)cc4)cnc3N)[nH]c2c1` [Compound I-24, 1-(5-amino-6-(6-methyl-1H-benzo[d]imidazol-2-yl)pyrazin-2-yl)pyridin-4(1H)-one] the same measures were 1000 to 5000 nM and below 100 nM.
For `CCS(=O)(=O)N1CC=C(c2cnc(N)c(-c3nc4cccnc4[nH]3)n2)CC1` [Compound I-27, 5-(1-(ethylsulfonyl)-1,2,3,6-tetrahydropyridin-4-yl)-3-(3H-imidazo[4,5-b]pyridin-2-yl)pyrazin-2-amine] the same measures were below 1000 nM and below 100 nM.
As to `CCS(=O)(=O)N1CC=C(c2cnc(N)c(-c3nnc(-c4ccccc4)o3)n2)CC1` [Compound I-28, 5-(1-(ethylsulfonyl)-1,2,3,6-tetrahydropyridin-4-yl)-3-(5-phenyl-1,3,4-oxadiazol-2-yl)pyrazin-2-amine], at intracellular ATR, the IC50 fell in the range of 5000 to 10000 nM. Besides, the Ki at full-length ATR was below 100 nM.
Regarding `COC(=O)N1CCN(c2cnc(N)c(-c3nnc(-c4ccccc4)o3)n2)CC1` [Compound I-225, methyl 4-(5-amino-6-(5-phenyl-1,3,4-oxadiazol-2-yl)pyrazin-2-yl)piperazine-1-carboxylate], the Ki at full-length ATR lay in the range of 100 to 1000 nM.
Same read-out and setting: the value for `CCS(=O)(=O)N1CC=C(c2cnc(N)c(-c3nc4cc(C)ccc4[nH]3)n2)CC1` [Compound I-157, 5-(1-(ethylsulfonyl)-1,2,3,6-tetrahydropyridin-4-yl)-3-(5-methyl-1H-benzo[d]imidazol-2-yl)pyrazin-2-amine] was below 100 nM; that for `CN(C)[C@@H]1CCN(C(=O)N2CC=C(c3cnc(N)c(-c4nc5ccccc5[nH]4)n3)CC2)C1` [Compound I-278, (R)-(4-(5-amino-6-(1H-benzo[d]imidazol-2-yl)pyrazin-2-yl)-5,6-dihydropyridin-1(2H)-yl)(3-(dimethylamino)pyrrolidin-1-yl)methanone] was 100 to 1000 nM.
On the same count and under the same terms, the value for `CNCc1ccc(-c2nnc(-c3nc(N4CCC(O)C4)cnc3N)o2)cc1` (stereo not shown) [Compound I-371, (35)-1-[5-Amino-6-[5-[4-(methylaminomethyl)phenyl]-1,3,4-oxadiazol-2-yl]pyrazin-2-yl]pyrrolidin-3-ol] was 100 to 1000 nM; that for `Cc1ccc2nc(-c3nc(N4CCN(c5ncccc5C(F)(F)F)CC4)cnc3N)[nH]c2c1` [Compound I-52, 3-(6-methyl-1H-benzo[d]imidazol-2-yl)-5-(4-(3-(trifluoromethyl)pyridin-2-yl)piperazin-1-yl)pyrazin-2-amine] was 1000 to 10000 nM; that for `Nc1ncc(N2CCN(C(=O)C3CCC3)CC2)nc1-c1nc2ccccc2[nH]1` [Compound I-174, (4-(5-amino-6-(1H-benzo[d]imidazol-2-yl)pyrazin-2-yl)piperazin-1-yl)(cyclobutyl)methanone] was 1000 to 10000 nM.
Still for that read-out and setting: in the case of `Cc1ccc2nc(-c3nc(N4CCN(c5nccs5)CC4)cnc3N)[nH]c2c1` [Compound I-46, 3-(6-methyl-1H-benzo[d]imidazol-2-yl)-5-(4-(thiazol-2-yl)piperazin-1-yl)pyrazin-2-amine] it was 100 to 1000 nM; in that of `CCS(=O)(=O)N1CC=C(c2cnc(N)c(C(=O)Nc3ccnc(C)c3)n2)CC1` [Compound I-166, 3-amino-6-(1-(ethylsulfonyl)-1,2,3,6-tetrahydropyridin-4-yl)-N-(2-methylpyridin-4-yl)pyrazine-2-carboxamide], 100 to 1000 nM; in that of `Nc1ncc(C2=CCN(C(=O)C3CCCCC3)CC2)nc1-c1nc2ccccc2[nH]1` [Compound I-259, (4-(5-amino-6-(1H-benzo[d]imidazol-2-yl)pyrazin-2-yl)-5,6-dihydropyridin-1(2H)-yl)(cyclohexyl)methanone], below 100 nM.

(Values after US8410112B2, “Compounds useful as inhibitors of ATR kinase” (Vertex Pharmaceuticals Incorporated, priority 2008, dated 2013).)
